# According to patent publication US12662511B2, “Molecular transport system to the central nervous system” (SRI International, priority 2020, dated 2026):
# No end group written: not given here.
# Key:
# [1] = Serum stability of MTS peptide; format: in vitro ADME; conditions: read-out: peptide remains intact
# Method: The stability of the different MTS sequences is important. […] 80% of the peptide remains intact at 24 hours. Modifications were mapped by MS.
# [2] = In vivo CSF accumulation and brain distribution of dye-labeled MTS after IV tail vein injection; parameters: species or system rat; conditions: for amount present relative to MTS_CPEC4_V2 / distribution in brain (fluorescence imaging of coronal slices): rat, IV tail vein; for amount present relative to MTS_CPEC4_V2: CSF, dimeric peptide, fold higher than MTS_CPEC4_V2; for distribution in brain (fluorescence imaging of coronal slices): dye-labeled MTS
# Method: The MTS is labeled with a dye that allows us to visualize its location. It is injected IV into the tail vein of a rat. After the indicated time, the CSF is isolated from the cisterna magna. The brain is harvested. After a fixation period, the brain is sliced in 1 mm coronal segments (front to back). The individual slices of the brain are imaged using fluorescence to locate the regions of peptide accumulation.
# Dimeric MTS_Z310-5 is present in an amount 3× higher than MTS_CPEC4_V2 (FIG. 26). […] The MTS is labeled with a dye that allows us to visualize its location. It is injected IV into the tail vein of a rat. After the indicated time, the CSF is isolated from the cisterna magna. The brain is harvested. After a fixation period, the brain is sliced in 1 mm coronal segments (front to back). The individual slices of the brain are imaged using fluorescence to locate the regions of peptide accumulation
# Dimeric MTS_Z310-2 is present in an amount 9× higher than MTS_CPEC4_V2 (FIG. 27). […] The MTS is labeled with a dye that allows us to visualize its location. It is injected IV into the tail vein of a rat. After the indicated time, the CSF is isolated from the cisterna magna. The brain is harvested. After a fixation period, the brain is sliced in 1 mm coronal segments (front to back). The individual slices of the brain are imaged using fluorescence to locate the regions of peptide accumulation
# choroid plexus cells = assay: Transport across monolayer of choroid plexus cells with dye or streptavidin cargo (FIG. 21); format: cell-based; conditions: chemical (AF647 dye) and protein (50 kDa Streptavidin) cargoes
# Text: The integrity of the monolayer with tight junctions is observed by the lack of diffusion or transport of low a molecular weight dye (750) maleimide), a 10 kDa dextran polymer, or larger protein (50 kDa). In the SA conjugate, the MTS has a biotin in the core structure. The biotin is then conjugated to a streptavidin protein labeled with a fluorophore.
# [3] = system: human primary choroid plexus epithelial cells; assay: Transwell transport of fluorescent protein cargo across human choroid plexus in vitro model; format: cell-based
# Text: A rat model was developed as well. Selection to identify a phage clone from the library that crosses the choroid plexus epithelial barrier has also been informed. […] The phage clone was transported into the CSF selectively and data supported similar transport for the MTS peptide.
# FIG. 13 represents a dimer of the CPEC4 peptide. The CPEC4 peptide was synthesized as a dimer and having a biotin handle that allows for attachment of fluorescently labeled proteins.
# 6-9% of the protein is transported across the cell layer. Tight junctions remain intact as witnessed by lack of dextran transport and maintenance of transepithelial resistance at the end of the experiment.
# [4] = system: choroid plexus epithelial cell layer; assay: Phage clone transport through human choroid plexus cells in vitro (FIG. 12); format: cell-based; conditions: phage-displayed peptide
# Method: CPEC4_Phage clone sequence […] (SEQ ID NO:2) was the lead peptide sequence in these studies. CPEC4 phage clone is enriched as multiple rounds of panning were performed. CPEC4 phage clone is selected from the transwell indicating transport and release.
# The phage clone remains viable during the cellular transport.
# [5] = system: rat choroid plexus epithelial cells (Z310); assay: Transwell transport across rat choroid plexus epithelial cells (Z310); format: cell-based
# Method: FIG. 15 is an in vitro transwell assay used to determine the ability of the MTS_CPEC4 phage clone or peptide to cross a choroid plexus barrier model derived from a Rat (Z310) cells). The amount of input placed on one side of the barrier (the “blood” side) and the amount that passes through the cells to the other side (the CSF side) is measured. The top table represents the data for the phage clone. The empty phage has no MTS peptide attached. The amount of phage in each side of the transwell is determined by bacterial titering. The bottom table represents the data for the synthetic peptide. Here the peptide is labeled with a fluorophore so the peptide on either side of the barrier can be measured. Dextran-dye (such as Alexa Fluor 488) is used as a control molecule. This molecule should not pass through the transwell and assures that the choroid plexus model is valid.
# Other lead MTS peptides were examined using a transwell transport set up with rat choroid plexus cells (FIG. 24). Eight phage clones were enriched in the CSF. Individual phage clones were then tested for transcytosis in vitro on Z310 choroid plexus cells and CSF accumulation in rats. MTS_Z310-2 (SEQ ID NO:4) and MTS_Z310-5 (SEQ ID NO:7) phage clones were carried forward for further evaluation. […] The 20% transport is better than that seen with CPEC4. […]
molecule,measurement,setting,value
CSCC[C@H](NC(=O)[C@H](CCC(N)=O)NC(=O)[C@H](Cc1c[nH]c2ccccc12)NC(=O)[C@H](CC(=O)O)NC(=O)[C@H](CC(C)C)NC(=O)[C@H](CO)NC(=O)[C@@H](NC(=O)[C@H](CCC(N)=O)NC(=O)[C@H](CC(C)C)NC(=O)[C@H](CCCCN)NC(=O)[C@H](Cc1ccc(O)cc1)NC(=O)[C@H](C)NC(=O)[C@H](CC(=O)O)NC(C)=O)[C@@H](C)O)C(=O)N[C@@H](Cc1c[nH]c2ccccc12)C(=O)N[C@@H](CC(N)=O)C(=O)N1CCC[C@H]1C(=O)NCCOCCOCCOCCOCCOCCOCCOCCOCCOCCOCCOCCC(N)=O [MTS-CPEC4_V2],remaining at 24 h,[1],80%
same,accumulation in the CSF,"[2]; rats, tail vein injection",accumulating in the CSF
same,transport across monolayer of choroid plexus cells,choroid plexus cells,efficiently transported
DGYKLQTSLDWQMWNP (molecular transport peptide) [MTS_CPEC4_V1],protein transported across the cell layer,[3],6-9%
same,transport across monolayer of choroid plexus cells,choroid plexus cells,efficiently transported
same,transport of phage particle across choroid plexus epithelial cell layer,[4],mediates transport of a large phage particle across choroid plexus epithelial cell layer
"Dimeric MTS_Z310-2: comprises two MTS peptides each having the sequence FPSWTSKNQQWTNQRQ (SEQ ID NO:4) (also: dimer, linkage not given here)",amount present relative to MTS_CPEC4_V2,[2],9 ×
same,distribution in brain (fluorescence imaging of coronal slices),[2],distributed throughout the ventricular system
"Dimeric MTS_Z310-5: comprises two MTS peptides each having the sequence SKETYSMNAQRQHERS (SEQ ID NO:7) (also: dimer, linkage not given here)",amount present relative to MTS_CPEC4_V2,[2],3 ×
same,distribution in brain (fluorescence imaging of coronal slices),[2],distributed throughout the ventricular system of the brain
FPSWTSKNQQWTNQRQ (molecular transport peptide) [MTS_Z310-2],transport of protein cargo,[5],20%
"MTS_CPEC4_V2 (SEQ ID NO: 1) dimers: comprises two MTS peptides each having the sequence DAYKLQTSLDWQMWNP (SEQ ID NO: 1) (also: dimer, linkage not given here)",distribution in brain (fluorescence imaging of coronal slices),[2],distributed throughout the ventricular system of the brain
SKETYSMNAQRQHERS (molecular transport peptide) [MTS_Z310-5],transport of protein cargo,[5],20%
